pEC50, pIC50: −log10 of the molar value.
Experiments:
PD-L1 = PD-L1 (Homo sapiens (Human), UniProt Q9NZQ7); assay: PD-L1 whole blood internalization assay; format: cell-based; details: 24 HR, PD-L1 expression on CD14+ cells, human interferon γ
[1] = test system: PD-L1 aAPC/CHO-K1 cells and Jurkat-PD-1-NFAT effector cells; assay: Nuclear factor of activated T-cells (NFAT) assay; format: cell-based; details: Cricetulus griseus, CHO-K1
In short: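 CHO-K1 cells expressing PD-L1 aAPC were co-cultured with Jurkat-PD-1-NFAT effector cells in RPMI 1640 with 1% FBS and compound (0.4% DMSO; top concentration 2 μM) for 24 h at 37 °C. Bio-Glo luminescence was read, fold induction normalised to DMSO wells, and EC50 fitted from percent of control compound activity.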

[2] = target: PD-1/PD-L1 protein/protein interaction (recombinant human PD-L1 and human PD-1) (Homo sapiens (Human), UniProt Q9NZQ7); assay: Homogeneous Time-Resolved Fluorescence (HTRF) PD-1/PD-L1 binding assay
Chain of PD-1/PD-L1 protein/protein interaction (recombinant human PD-L1 and human PD-1) (Q9NZQ7 19-238): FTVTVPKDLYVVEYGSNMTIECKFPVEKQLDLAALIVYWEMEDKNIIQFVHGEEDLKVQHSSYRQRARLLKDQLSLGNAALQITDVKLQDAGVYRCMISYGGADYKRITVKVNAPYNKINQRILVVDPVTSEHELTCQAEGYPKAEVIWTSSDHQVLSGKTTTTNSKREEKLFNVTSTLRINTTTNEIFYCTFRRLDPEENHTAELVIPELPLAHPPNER
In short: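 Human PD-L1 (19-238, C-His; 10 nM final) and PD-1 (25-167, C-Fc; 3 nM final) preincubated 40 min with inhibitor in PBS pH 7.4, 0.05% Tween-20, 0.1% BSA, 1% DMSO, 25 °C. Eu-anti-human IgG (1 nM) and anti-His-APC (20 nM) added for 60 min; 665/620 nm ratio; IC50 from percent-control curves.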

[3] = test system: U2OS/PD-L1 cells and Jurkat-PD-1-SHP cells; assay: Src homology region 2 domain-containing phosphatase (SHP) assay; format: cell-based; details: Homo sapiens, U2OS
In short: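 U2OS/PD-L1 and Jurkat-PD-1-SHP cells (5000 each per well) were co-incubated with compound for 2 h at 37 °C in RPMI1640 with 1% FBS, 0.05% DMSO final. PathHunter chemiluminescence was read after 1 h at room temperature, and IC50 was fitted from percent of DMSO-control activity.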

Chain of PD-L1 (Q9NZQ7 19-290): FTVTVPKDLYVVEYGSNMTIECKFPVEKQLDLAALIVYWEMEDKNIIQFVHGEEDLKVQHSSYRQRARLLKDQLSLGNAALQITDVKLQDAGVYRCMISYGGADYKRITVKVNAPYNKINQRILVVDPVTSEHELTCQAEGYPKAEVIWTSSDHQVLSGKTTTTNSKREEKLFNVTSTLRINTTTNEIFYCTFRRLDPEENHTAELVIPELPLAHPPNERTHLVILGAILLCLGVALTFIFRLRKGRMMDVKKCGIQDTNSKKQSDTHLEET

SMILES	pIC50 (PD-L1)	pIC50 [2]	pIC50 [3]	pEC50 [1]
Cn1c(C(=O)Nc2cccc(-c3cccc(NC(=O)c4nc5c(n4C)CCN(C[C@H](O)CO)C5)c3Cl)c2Cl)nc2c1CCN(CCC13CCC(C(=O)O)(CC1)C3)C2 [Example 12, (S)-4-(2-(2-((2,2′-dichloro-3′-(5-(2,3-dihydroxypropyl)-1-methyl-4,5,6,7-tetrahydro-1H-imidazo[4,5-c]pyridine-2-carboxamido)-[1,1′-biphenyl]-3-yl)carbamoyl)-1-methyl-1,4,6,7-tetrahydro-5H-imidazo[4,5-c]pyridin-5-yl)ethyl)bicyclo[2.2.1]heptane-1-carboxylic acid]	7.00 to 8.00	≥ 8.30	≥ 8.00	7.00 to 8.00
Cn1c(C(=O)Nc2cccc(-c3cccc(NC(=O)c4nc5c(n4C)CCN(CCC46CCC(C(=O)O)(CC4)C6)C5)c3Cl)c2Cl)nc2c1CCN(CCc1ccc(C(=O)O)cc1)C2 [Example 25, 4-(2-(2-((3′-(5-(4-carboxyphenethyl)-1-methyl-4,5,6,7-tetrahydro-1H-imidazo[4,5-c]pyridine-2-carboxamido)-2,2′-dichloro-[1,1′-biphenyl]-3-yl)carbamoyl)-1-methyl-1,4,6,7-tetrahydro-5H-imidazo[4,5-c]pyridin-5-yl)ethyl)bicyclo[2.2.1]heptane-1-carboxylic acid]	6.30 to 7.00	≥ 8.30	7.00 to 8.00	7.00 to 8.00
Cn1c(C(=O)Nc2cccc(-c3cccc(NC(=O)c4nc5c(n4C)CCN(C4CCOCC4)C5)c3Cl)c2Cl)nc2c1CCN(CCC13CCC(C(=O)O)(CC1)C3)C2 [Example 2, 4-(2-(2-((2,2′-dichloro-3′-(1-methyl-5-(tetrahydro-2H-pyran-4-yl)-4,5,6,7-tetrahydro-1H-imidazo[4,5-c]pyridine-2-carboxamido)-[1,1′-biphenyl]-3-yl)carbamoyl)-1-methyl-1,4,6,7-tetrahydro-5H-imidazo[4,5-c]pyridin-5-yl)ethyl)bicyclo[2.2.1]heptane-1-carboxylic Acid]	7.00 to 8.00	≥ 8.30	≥ 8.00	7.00 to 8.00
Cn1c(C(=O)Nc2cccc(-c3cccc(NC(=O)c4nc5c(n4C)CCN(CCC46CCC(C(=O)O)(CC4)C6)C5)c3Cl)c2Cl)nc2c1CCN(CCO)C2 [Example 15, 4-(2-(2-((2,2′-dichloro-3′-(5-(2-hydroxyethyl)-1-methyl-4,5,6,7-tetrahydro-1H-imidazo[4,5-c]pyridine-2-carboxamido)-[1,1′-biphenyl]-3-yl)carbamoyl)-1-methyl-1,4,6,7-tetrahydro-5H-imidazo[4,5-c]pyridin-5-yl)ethyl)bicyclo[2.2.1]heptane-1-carboxylic acid]	7.00 to 8.00	≥ 8.30	≥ 8.00	7.00 to 8.00
Cc1c(NC(=O)c2nc3c(n2C)CCN(CCC24CCC(C(=O)O)(CC2)C4)C3)cccc1-c1cccc(NC(=O)c2nc3c(n2C)CCN(CCc2ccc(C(=O)O)cc2)C3)c1Cl [Example 45, 4-(2-(2-((3′-(5-(4-carboxyphenethyl)-1-methyl-4,5,6,7-tetrahydro-1H-imidazo[4,5-c]pyridine-2-carboxamido)-2′-chloro-2-methyl-[1,1′-biphenyl]-3-yl)carbamoyl)-1-methyl-1,4,6,7-tetrahydro-5H-imidazo[4,5-c]pyridin-5-yl)ethyl)bicyclo[2.2.1]heptane-1-carboxylic acid]	6.30 to 7.00	8.00 to 8.30	≥ 8.00	7.00 to 8.00
Cn1c(C(=O)Nc2cccc(-c3cccc(NC(=O)c4nc5c(n4C)CCN(CC46CCC(C(=O)O)(CC4)CC6)C5)c3Cl)c2Cl)nc2c1CCN(CCC13CCC(C(=O)O)(CC1)C3)C2 [Example 23, 4-((2-((3′-(5-(2-(4-carboxybicyclo[2.2.1]heptan-1-yl)ethyl)-1-methyl-4,5,6,7-tetrahydro-1H-imidazo[4,5-c]pyridine-2-carboxamido)-2,2′-dichloro-[1,1′-biphenyl]-3-yl)carbamoyl)-1-methyl-1,4,6,7-tetrahydro-5H-imidazo[4,5-c]pyridin-5-yl)methyl)bicyclo[2.2.2]octane-1-carboxylic acid]	6.30 to 7.00	≥ 8.30	≥ 8.00	7.00 to 8.00
Cc1c(NC(=O)c2nc3c(n2C)CCN(CCC24CCC(C(=O)O)(CC2)C4)C3)cccc1-c1cccc(NC(=O)c2nc3c(n2C)CCN(C2CCN(C(N)=O)CC2)C3)c1Cl [Example 40, 4-(2-(2-((3′-(5-(1-carbamoylpiperidin-4-yl)-1-methyl-4,5,6,7-tetrahydro-1H-imidazo[4,5-c]pyridine-2-carboxamido)-2′-chloro-2-methyl[1,1′-biphenyl]-3-yl)carbamoyl)-1-methyl-1,4,6,7-tetrahydro-5H-imidazo[4,5-c]pyridin-5-yl)ethyl)bicyclo[2.2.1]heptane-1-carboxylic acid]	7.00 to 8.00	≥ 8.30	≥ 8.00	7.00 to 8.00
Cn1c(C(=O)Nc2cccc(-c3cccc(NC(=O)c4nc5c(n4C)CCN(CC46CCC(C(=O)O)(CC4)C6)C5)c3Cl)c2Cl)nc2c1CCN(CCC13CCC(C(=O)O)(CC1)C3)C2 [Example 18, 4-((2-((3′-(5-(2-(4-carboxybicyclo[2.2.1]heptan-1-yl)ethyl)-1-methyl-4,5,6,7-tetrahydro-1H-imidazo[4,5-c]pyridine-2-carboxamido)-2,2′-dichloro-[1,1′-biphenyl]-3-yl)carbamoyl)-1-methyl-1,4,6,7-tetrahydro-5H-imidazo[4,5-c]pyridin-5-yl)methyl)bicyclo[2.2.1]heptane-1-carboxylic acid]	7.00 to 8.00	≥ 8.30	≥ 8.00	7.00 to 8.00

Second part, led by results:

pIC50 (PD-L1)	pIC50 [2]	pIC50 [3]	SMILES	pEC50 [1]
7.00 to 8.00	≥ 8.30	≥ 8.00	Cc1c(NC(=O)c2nc3c(n2C)CCN(CCC24CCC(C(=O)O)(CC2)C4)C3)cccc1-c1cccc(NC(=O)c2nc3c(n2C)CCN(C[C@@H](C)O)C3)c1C [Example 57, (R)-4-(2-(2-((3′-(5-(2-hydroxypropyl)-1-methyl-4,5,6,7-tetrahydro-1H-imidazo[4,5-c]pyridine-2-carboxamido)-2,2′-dimethyl-[1,1′-biphenyl]-3-yl)carbamoyl)-1-methyl-1,4,6,7-tetrahydro-5H-imidazo[4,5-c]pyridin-5-yl)ethyl)bicyclo[2.2.1]heptane-1-carboxylic Acid]	7.00 to 8.00
6.30 to 7.00	≥ 8.30	≥ 8.00	Cc1c(NC(=O)c2nc3c(n2C)CCN(CCC24CCC(C(=O)O)(CC2)C4)C3)cccc1-c1cccc(NC(=O)c2nc3c(n2C)CCN(C2CCOCC2)C3)c1C [Example 56, 4-(2-(2-((2,2′-dimethyl-3′-(1-methyl-5-(tetrahydro-2H-pyran-4-yl)-4,5,6,7-tetrahydro-1H-imidazo[4,5-c]pyridine-2-carboxamido)-[1,1′-biphenyl]-3-yl)carbamoyl)-1-methyl-1,4,6,7-tetrahydro-5H-imidazo[4,5-c]pyridin-5-yl)ethyl)bicyclo[2.2.1]heptane-1-carboxylic acid]	7.00 to 8.00
7.00 to 8.00	≥ 8.30	≥ 8.00	Cn1c(C(=O)Nc2cccc(-c3cccc(NC(=O)c4nc5c(n4C)CCN(CC[C@H]4CC[C@H](C(=O)O)CC4)C5)c3Cl)c2Cl)nc2c1CCN(CCC13CCC(C(=O)O)(CC1)C3)C2 [Example 62, 4-(2-(2-((3′-(5-(2-(trans-4-carboxycyclohexyl)ethyl)-1-methyl-4,5,6,7-tetrahydro-1H-imidazo[4,5-c]pyridine-2-carboxamido)-2,2′-dichloro-[1,1′-biphenyl]-3-yl)carbamoyl)-1-methyl-1,4,6,7-tetrahydro-5H-imidazo[4,5-c]pyridin-5-yl)ethyl)bicyclo[2.2.1]heptane-1-carboxylic acid]	7.00 to 8.00
6.30 to 7.00	≥ 8.30	≥ 8.00	Cc1c(NC(=O)c2nc3c(n2C)CCN(CCC24CCC(C(=O)O)(CC2)C4)C3)cccc1-c1cccc(NC(=O)c2nc3c(n2C)CCN(C[C@H](C)O)C3)c1C [Example 58, (S)-4-(2-(2-((3′-(5-(2-hydroxypropyl)-1-methyl-4,5,6,7-tetrahydro-1H-imidazo[4,5-c]pyridine-2-carboxamido)-2,2′-dimethyl-[1,1′-biphenyl]-3-yl)carbamoyl)-1-methyl-1,4,6,7-tetrahydro-5H-imidazo[4,5-c]pyridin-5-yl)ethyl)bicyclo[2.2.1]heptane-1-carboxylic acid]	7.00 to 8.00
7.00 to 8.00	≥ 8.30	≥ 8.00	Cn1c(C(=O)Nc2cccc(-c3cccc(NC(=O)c4nc5c(n4C)CCN([C@H]4CC[C@@](C)(C(=O)O)CC4)C5)c3Cl)c2Cl)nc2c1CCN(CCC13CCC(C(=O)O)(CC1)C3)C2 [Example 65, 4-(2-(2-((3′-(5-(cis-4-carboxy-4-methylcyclohexyl)-1-methyl-4,5,6,7-tetrahydro-1H-imidazo[4,5-c]pyridine-2-carboxamido)-2,2′-dichloro-[1,1′-biphenyl]-3-yl)carbamoyl)-1-methyl-1,4,6,7-tetrahydro-5H-imidazo[4,5-c]pyridin-5-yl)ethyl)bicyclo[2.2.1]heptane-1-carboxylic Acid]	7.00 to 8.00
